From US20240044922A1, “DEVICE AND METHODS FOR MEASURING PLATELET-FIBRIN CLOT CONTRACTION KINETICS” (University of Kentucky Research Foundation, priority 2022, published 2024)
Where “and” joins values, the source holds several entries; their conditions need not be identical. Equal values may be shown once. Read-outs that look alike come from different tables or passages of the source. Bridge positions count the residues as written; N and C are the ends. Square brackets hold non-standard residues; d marks the D form. Peptide text beside a SMILES is read from it. hArg = N=C(N)NCCCC[C@H](N)C(=O)O; Mpa = O=C(O)CCS

System: washed mouse platelets
Assay: Clot contraction assay, time-lapse imaging of washed mouse platelets with thrombin, fibrinogen and CaCl2
Format: cell-based
[1] = blebbistatin 50 μM, standard conditions
[2] = blebbistatin 100 μM, standard conditions
[3] = blebbistatin 200 μM, standard conditions
[4] = CaCl2 0.1 mM, thrombin 20 mU/mL, fibrinogen 250 μg/mL
[5] = CaCl2 0.5 mM, thrombin 20 mU/mL, fibrinogen 250 μg/mL
[6] = CaCl2 1 mM, thrombin 20 mU/mL, fibrinogen 250 μg/mL
[7] = 1 mM EGTA, thrombin 20 mU/mL, fibrinogen 250 μg/mL
[8] = eptifibatide 50 μM, standard conditions
[9] = eptifibatide 100 μM, standard conditions
[10] = eptifibatide 150 μM, standard conditions

O=CC[C@@H](O)[C@H](O)[C@H](O)CO [2DG, 2-deoxyglucose, reference compound]
Reduction of Phase 3 rate (10 mM 2DG): ~5 fold | AUC (2DG 5 mM, standard conditions): 6.10 AU | Average Velocity (2DG 5 mM, standard conditions): 0.74 %/min | Clot Contraction Extent (2DG 5 mM, standard conditions): 72.66% | Lag time (2DG 5 mM, standard conditions): 23.33 min | PHASE 1 % Contraction (2DG 5 mM, standard conditions): 2.68% | PHASE 1 Rate 1 (2DG 5 mM, standard conditions): 2.00 ×10^−3 %/min | PHASE 1 t1 (2DG 5 mM, standard conditions): 11.67 min | PHASE 2 % Contraction (2DG 5 mM, standard conditions): 16.98% | PHASE 2 Rate 2 (2DG 5 mM, standard conditions): 0.88 %/min | PHASE 2 t2 (2DG 5 mM, standard conditions): 30.33 min | PHASE 3 % Contraction (2DG 5 mM, standard conditions): 53% | PHASE 3 Rate 3 (2DG 5 mM, standard conditions): 1.83 ×10^−2 %/min | AUC (2DG 10 mM, standard conditions): 7.44 AU | Average Velocity (2DG 10 mM, standard conditions): 0.51 %/min | Clot Contraction Extent (2DG 10 mM, standard conditions): 50.55% | Lag time (2DG 10 mM, standard conditions): 37.00 min | PHASE 1 % Contraction (2DG 10 mM, standard conditions): 5.82% | PHASE 1 Rate 1 (2DG 10 mM, standard conditions): 3.33 ×10^−3 %/min | PHASE 1 t1 (2DG 10 mM, standard conditions): 23.33 min | PHASE 2 % Contraction (2DG 10 mM, standard conditions): 13.04% | PHASE 2 Rate 2 (2DG 10 mM, standard conditions): 0.69 %/min | PHASE 2 t2 (2DG 10 mM, standard conditions): 44.33 min | PHASE 3 % Contraction (2DG 10 mM, standard conditions): 31.68% | PHASE 3 Rate 3 (2DG 10 mM, standard conditions): 0.87 ×10^−2 %/min | Detection of the three phases of contraction (2DG 25 mM): none of the three phases were detectible | AUC (2DG 25 mM, standard conditions): 8.57 AU | Average Velocity (2DG 25 mM, standard conditions): 0.24 %/min | Clot Contraction Extent (2DG 25 mM, standard conditions): 23.45% | Lag time (2DG 25 mM, standard conditions): 99.00 min | Effect on average velocity (varying 2DG concentrations): significant inhibitory effects | Effect on extent of contraction (varying 2DG concentrations): significant inhibitory effects | Effect on lag time (varying 2DG concentrations): prolonged lag time

Cc1ccc2c(c1)C(=O)C1(O)CCN(c3ccccc3)C1=N2 (centres unmarked) [Blebbistatin, blebbistatin, reference compound]
AUC [1]: 4.18 AU | Average Velocity [1]: 1.00 %/min | Clot Contraction Extent [1]: 96.93% | Lag time [1]: 23.33 min | PHASE 1 % Contraction [1]: 4.23% | PHASE 1 Rate 1 [1]: 3.67 ×10^−3 %/min | PHASE 1 t1 [1]: 14.33 min | PHASE 2 % Contraction [1]: 26.51% | PHASE 2 Rate 2 [1]: 1.40 %/min | PHASE 2 t2 [1]: 32.00 min | PHASE 3 % Contraction [1]: 66.19% | PHASE 3 Rate 3 [1]: 5.00 ×10^−2 %/min | AUC [2]: 6.08 AU | Average Velocity [2]: 0.88 %/min | Clot Contraction Extent [2]: 85.15% | Lag time [2]: 40.00 min | PHASE 1 % Contraction [2]: 7.21% | PHASE 1 Rate 1 [2]: 4.00 ×10^−3 %/min | PHASE 1 t1 [2]: 24.67 min | PHASE 2 % Contraction [2]: 28.71% | PHASE 2 Rate 2 [2]: 1.00 %/min | PHASE 2 t2 [2]: 51.00 min | PHASE 3 % Contraction [2]: 49.27% | PHASE 3 Rate 3 [2]: 3.47 ×10^−2 %/min | AUC [3]: 6.79 AU | Average Velocity [3]: 0.69 %/min | Clot Contraction Extent [3]: 66.52% | Lag time [3]: 43.67 min | PHASE 1 % Contraction [3]: 12.21% | PHASE 1 Rate 1 [3]: 5.00 ×10^−3 %/min | PHASE 1 t1 [3]: 31.00 min | PHASE 2 % Contraction [3]: 14.17% | PHASE 2 Rate 2 [3]: 0.69 %/min | PHASE 2 t2 [3]: 49.33 min | PHASE 3 % Contraction [3]: 40.15% | PHASE 3 Rate 3 [3]: 1.70 ×10^−2 %/min | Effect on Phase 2 contraction rate (blebbistatin 50 to 200 μM): drastic decrease | Effect on average velocity (blebbistatin 50 to 200 μM): decrease | Effect on extent of clot contraction (blebbistatin 50 to 200 μM): decrease | Effect on lag time (blebbistatin 50 to 200 μM): dose-dependent increase

[Ca+2].[Cl-].[Cl-] [CaCl2]
AUC [4]: 3.78 AU | Average Velocity [4]: 0.98 %/min | Clot Contraction Extent [4]: 97.02% | Lag time [4]: 15.00 min | PHASE 1 % Contraction [4]: 2.91% | PHASE 1 Rate 1 [4]: 5.00 ×10^−3 %/min | PHASE 1 t1 [4]: 7.00 min | PHASE 2 % Contraction [4]: 29.63% | PHASE 2 Rate 2 [4]: 1.51 %/min | PHASE 2 t2 [4]: 27.33 min | PHASE 3 % Contraction [4]: 64.48% | PHASE 3 Rate 3 [4]: 1.51 ×10^−2 %/min | AUC [5]: 3.93 AU | Average Velocity [5]: 0.96 %/min | Clot Contraction Extent [5]: 95.36% | Lag time [5]: 15.67 min | PHASE 1 % Contraction [5]: 3.27% | PHASE 1 Rate 1 [5]: 4.67 ×10^−3 %/min | PHASE 1 t1 [5]: 8.33 min | PHASE 2 % Contraction [5]: 27.00% | PHASE 2 Rate 2 [5]: 1.43 %/min | PHASE 2 t2 [5]: 28.00 min | PHASE 3 % Contraction [5]: 65.48% | PHASE 3 Rate 3 [5]: 1.43 ×10^−2 %/min | AUC [6]: 3.69 AU | Average Velocity [6]: 0.99 %/min | Clot Contraction Extent [6]: 98.08% | Lag time [6]: 17.67 min | PHASE 1 % Contraction [6]: 5.50% | PHASE 1 Rate 1 [6]: 5.00 ×10^−3 %/min | PHASE 1 t1 [6]: 12.33 min | PHASE 2 % Contraction [6]: 31.17% | PHASE 2 Rate 2 [6]: 1.87 %/min | PHASE 2 t2 [6]: 30.00 min | PHASE 3 % Contraction [6]: 61.41% | PHASE 3 Rate 3 [6]: 1.87 ×10^−2 %/min | Differences in clot contraction (calcium between 0.1 and 1 mM): limited differences

O=C(O)CN(CCOCCOCCN(CC(=O)O)CC(=O)O)CC(=O)O [EGTA, reference compound]
AUC [7]: 7.83 AU | Average Velocity [7]: 0.51 %/min | Clot Contraction Extent [7]: 50.72% | Lag time [7]: 71.67 min | Effect on average contraction velocity (EGTA included): significantly reduced | Detection of the three phases of contraction (in the presence of EGTA): none of the three phases was detectible

N=C(N)NCCCC[C@@H]1NC(=O)CCSSC[C@@H](C(N)=O)NC(=O)[C@@H]2CCCN2C(=O)[C@H](Cc2c[nH]c3ccccc23)NC(=O)[C@H](CC(=O)O)NC(=O)CNC1=O [Eptifibatide, eptifibatide, reference compound] ([Mpa][hArg]GDWPC-NH2; disulfide 1-7)
AUC: 5.51 AU and 6.76 AU and 6.84 AU | Average Velocity [8]: 0.91 %/min | Clot Contraction Extent [8]: 89.56% | Lag time [8]: 29.33 min | PHASE 1 % Contraction [8]: 5.36% | PHASE 1 Rate 1 [8]: 3.93 ×10^−3 %/min | PHASE 1 t1 [8]: 14.33 min | PHASE 2 % Contraction [8]: 32.14% | PHASE 2 Rate 2 [8]: 1.96 %/min | PHASE 2 t2 [8]: 43.00 min | PHASE 3 % Contraction [8]: 52.91% | PHASE 3 Rate 3 [8]: 3.83 ×10^−2 %/min | Average Velocity [9]: 0.74 %/min | Clot Contraction Extent [9]: 73.02% | Lag time [9]: 46.67 min | PHASE 1 % Contraction [9]: 9.24% | PHASE 1 Rate 1 [9]: 4.00 ×10^−3 %/min | PHASE 1 t1 [9]: 26.00 min | PHASE 2 % Contraction [9]: 20.75% | PHASE 2 Rate 2 [9]: 1.08 %/min | PHASE 2 t2 [9]: 52.00 min | PHASE 3 % Contraction [9]: 43.03% | PHASE 3 Rate 3 [9]: 2.20 ×10^−2 %/min | Detection of the three phases of contraction (eptifibatide 150 μM): none of the three phases were detectible | Average Velocity [10]: 0.67 %/min | Clot Contraction Extent [10]: 66.08% | Lag time [10]: 50 min | Effect on average velocity of contraction (eptifibatide 50 to 150 μM): dose-dependent decrease | Effect on extent of contraction (eptifibatide 50 to 150 μM): dose-dependent decrease | Increase in lag time (eptifibatide 50 to 150 μM): ~4 fold
